Data taken from ChEMBL document CHEMBL1201862, “PubChem BioAssay data set” (2004).
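Exposure lasted 48 hours, with cells grown in 96-well plates and compounds tested at five concentrations. At the GI50, growth is halved.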 Calls of active or inactive are those of the source. No stated cut-off is given here; in the data, active = GI50 up to about 1.1 µM and inactive = higher.

Tests used:
Experiment in all cases: NCI-60 cell line screen, 48 h
NCI/ADR-RES = test system: NCI/ADR-RES
Malme-3M = test system: Malme-3M
SK-OV-3 = test system: SK-OV-3
U-251 = test system: U-251
HOP-62 = test system: HOP-62
K562 = test system: K562
KM12 = test system: KM12
HOP-92 = test system: HOP-92
MCF7 = test system: MCF7
PC-3 = test system: PC-3
SF-539 = test system: SF-539
HL-60 = test system: HL-60
NCI-H23 = test system: NCI-H23
HT-29 = test system: HT-29
ACHN = test system: ACHN
OVCAR-4 = test system: OVCAR-4
HCT-116 = test system: HCT-116
SK-MEL-2 = test system: SK-MEL-2
RXF 393 = test system: RXF 393
HCC 2998 = test system: HCC 2998
A549 = test system: A549
LOX IMVI = test system: LOX IMVI
OVCAR-8 = test system: OVCAR-8
RPMI-8226 = test system: RPMI-8226
SF-295 = test system: SF-295
A498 = test system: A498
CAKI-1 = test system: CAKI-1
NCI-H226 = test system: NCI-H226
T47D = test system: T47D
SR = test system: SR
NCI-H522 = test system: NCI-H522
OVCAR-3 = test system: OVCAR-3
M14 = test system: M14
MDA-MB-435 = test system: MDA-MB-435
MDA-N = test system: MDA-N
COLO 205 = test system: COLO 205
UACC-257 = test system: UACC-257
TK-10 = test system: TK-10
OVCAR-5 = test system: OVCAR-5
SF-268 = test system: SF-268
BT-549 = test system: BT-549
SW-620 = test system: SW-620
CCRF-CEM = test system: CCRF-CEM
HCT-15 = test system: HCT-15
UO-31 = test system: UO-31
NCI-H460 = test system: NCI-H460
SNB-19 = test system: SNB-19
SK-MEL-28 = test system: SK-MEL-28
Hs-578T = test system: Hs-578T
SN12C = test system: SN12C
SK-MEL-5 = test system: SK-MEL-5
MOLT-4 = test system: MOLT-4
786-0 = test system: 786-0
EKVX = test system: EKVX
MDA-MB-231 = test system: MDA-MB-231
IGROV-1 = test system: IGROV-1
DU-145 = test system: DU-145
UACC-62 = test system: UACC-62

Structure (SMILES): O=C(CCc1ccc(O)c(O)c1)OCCc1ccccc1
- GI50 (NCI/ADR-RES): > 100 µM (inactive)
- GI50 (Malme-3M): > 88.9 µM (inactive)
- GI50 (SK-OV-3): > 100 µM (inactive)
- GI50 (U-251): > 100 µM (inactive)
- GI50 (HOP-62): > 31.6 µM (inactive)
- GI50 (K562): 20.4 µM (inactive)
- GI50 (KM12): > 100 µM (inactive)
- GI50 (HOP-92): > 21.2 µM (inactive)
- GI50 (MCF7): > 62.1 µM (inactive)
- GI50 (PC-3): > 100 µM (inactive)
- GI50 (SF-539): 18.6 µM (inactive)
- GI50 (HL-60): 3.85 µM (inactive)
- GI50 (NCI-H23): > 65.3 µM (inactive)
- GI50 (HT-29): > 100 µM (inactive)
- GI50 (ACHN): 59.7 µM (inactive)
- GI50 (OVCAR-4): 29.6 µM (inactive)
- GI50 (HCT-116): 44.6 µM (inactive)
- GI50 (SK-MEL-2): > 100 µM (inactive)
- GI50 (RXF 393): > 67 µM (inactive)
- GI50 (HCC 2998): > 100 µM (inactive)
- GI50 (A549): > 100 µM (inactive)
- GI50 (LOX IMVI): 22.5 µM (inactive)
- GI50 (OVCAR-8): 23.1 µM (inactive)
- GI50 (RPMI-8226): 18.9 µM (inactive)
- GI50 (SF-295): > 100 µM (inactive)
- GI50 (A498): > 100 µM (inactive)
- GI50 (CAKI-1): 78.3 µM (inactive)
- GI50 (NCI-H226): > 100 µM (inactive)
- GI50 (T47D): > 96.4 µM (inactive)
- GI50 (SR): 17.6 µM (inactive)
- GI50 (NCI-H522): 3.7 µM (inactive)
- GI50 (OVCAR-3): 29.6 µM (inactive)
- GI50 (M14): 67.3 µM (inactive)
- GI50 (MDA-MB-435): 20.8 µM (inactive)
- GI50 (MDA-N): 15.4 µM (inactive)
- GI50 (COLO 205): 42.7 µM (inactive)
- GI50 (UACC-257): > 82.2 µM (inactive)
- GI50 (TK-10): > 100 µM (inactive)
- GI50 (OVCAR-5): > 100 µM (inactive)
- GI50 (SF-268): > 100 µM (inactive)
- GI50 (BT-549): > 100 µM (inactive)
- GI50 (SW-620): 31.1 µM (inactive)
- GI50 (CCRF-CEM): 4.86 µM (inactive)
- GI50 (HCT-15): > 53 µM
- GI50 (UO-31): > 80.9 µM (inactive)
- GI50 (NCI-H460): > 100 µM (inactive)
- GI50 (SNB-19): > 100 µM (inactive)
- GI50 (SK-MEL-28): > 100 µM (inactive)
- GI50 (Hs-578T): > 100 µM (inactive)
- GI50 (SN12C): > 61.1 µM (inactive)
- GI50 (SK-MEL-5): 42.2 µM (inactive)
- GI50 (MOLT-4): 15.1 µM (inactive)
- GI50 (786-0): 19.7 µM (inactive)
- GI50 (EKVX): > 100 µM (inactive)
- GI50 (MDA-MB-231): 67.6 µM (inactive)
- GI50 (IGROV-1): 54.1 µM (inactive)
- GI50 (DU-145): > 100 µM (inactive)
- GI50 (UACC-62): 45.4 µM (inactive)
